Data on 20 molecules can be found in US10654834B2 (Venenum Biodesign, LLC, priority 2016, dated 2020).

Assay [1] deals with T1, mouse TGR5 receptor (Mus musculus, UniProt Q80SS6).
T1 construct: host or cells: HEK293-EBNA (293 c18, ATCC CRL10852)
T1 sequence (Q80SS6 1-329): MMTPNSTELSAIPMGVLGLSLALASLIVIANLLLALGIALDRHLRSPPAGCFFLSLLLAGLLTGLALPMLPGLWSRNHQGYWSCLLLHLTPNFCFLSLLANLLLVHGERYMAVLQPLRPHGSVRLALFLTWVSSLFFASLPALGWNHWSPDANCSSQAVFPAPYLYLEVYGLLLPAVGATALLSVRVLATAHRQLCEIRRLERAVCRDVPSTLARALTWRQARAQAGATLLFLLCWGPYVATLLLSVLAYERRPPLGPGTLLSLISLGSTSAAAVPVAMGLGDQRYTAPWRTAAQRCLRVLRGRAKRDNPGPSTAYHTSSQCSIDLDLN
Description: Mouse TGR5 luminescent cAMP production assay (HEK293-EBNA cells, DiscoveRx cAMP XS+ kit). It is filed as cell-based. The following applies: HEK293-EBNA cells overexpressing mouse TGR5, luminescent cAMP assay; read-out: Mouse TGR5 Lum. cAMP Activity (EC50). Here is the method:
Mouse TGR5 cAMP Production Assay
Compounds of the present invention were evaluated for their ability to induce cAMP production in HEK-EBNA cells overexpressing the mouse TGR5 receptor. Human embryonic kidney cells (HEK293-EBNA) stably expressing mouse TGR5 receptor were established using the following procedure. Specifically, a commercially obtained gene encoding mouse TGR5 (accession number BC116914) from Thermo Scientific (Waltham, Mass.) was cloned into an episomal expression vector. The resulting expression plasmid was then transfected into 293 c18 (ATCC® CRL10852™) cells, which express the Epstein-Barr virus nuclear antigen EBNA1 and can support the replication of episomal vectors. Selection for the plasmid was maintained with Hygromycin B. Cells were cultured and maintained in DMEM (Sigma; cat #6429) supplemented with 10% Fetal Bovine Serum, 1% penicillin/streptomycin, 2 mM L-alanine L-glutamine (GlutaMax), and 250 μg/mL Hygromycin.
We developed two cAMP production assays.
(i) Luminescent cAMP Production Assay
In this first cAMP production assay, the cAMP production was measured using DiscoveRx's cAMP XS+ kit following the manufacturer's recommended protocol. Briefly, HEK293-EBNA cells stably overexpressing mouse TGR5 were harvested using non-enzymatic cell dissociation buffer (Sigma-Aldrich, St. Louis, Mo.), spun down, then resuspended in serum-free DMEM with 500 μM IBMX at a density of 1.25×10^6 cells/mL. 500 μL of cAMP antibody solution was added to 500 μL of cell suspension and incubated at room temperature for 20 min.
Test compounds were serially diluted (half-log dilutions) in DMSO and then further diluted 1:50 in PBS, 10 mM HEPES buffer. 2 μL of serially diluted compound was added to a 384-well low volume plate (Greiner cat #784075) and centrifuged briefly. 2 μl of the cell/cAMP antibody mixture was then added to each compound-containing well and allowed to incubate at room temperature for one (1) hour. Following incubation, the XS+ kits' ED/Lysis/CL Substrate Working Solution was prepared following the manufacturer's recommended protocol and 4 μL was added to each well of the plate. The plate was then incubated for one (1) hour at room temperature. Following incubation, 4 μL of (Enzyme Acceptor) EA reagent was added to the plate and allowed to incubate overnight at room temperature. Luminescent signal was then detected using the Viewlux instrument (PerkinElmer, Waltham, Mass.).
In Table 52, EC50 values for both human and mouse cells were determined according to the TGR5 cAMP assays described above. […]
In general terms: Changes in cAMP serve as a functional read-out for many G protein-coupled receptors.

The target in assay [2] is T2, human TGR5 receptor (Homo sapiens, UniProt Q8TDU6).
T2 construct: host or cells: CHO-K1 (hTGR5-CHO)
T2 sequence (Q8TDU6 1-330): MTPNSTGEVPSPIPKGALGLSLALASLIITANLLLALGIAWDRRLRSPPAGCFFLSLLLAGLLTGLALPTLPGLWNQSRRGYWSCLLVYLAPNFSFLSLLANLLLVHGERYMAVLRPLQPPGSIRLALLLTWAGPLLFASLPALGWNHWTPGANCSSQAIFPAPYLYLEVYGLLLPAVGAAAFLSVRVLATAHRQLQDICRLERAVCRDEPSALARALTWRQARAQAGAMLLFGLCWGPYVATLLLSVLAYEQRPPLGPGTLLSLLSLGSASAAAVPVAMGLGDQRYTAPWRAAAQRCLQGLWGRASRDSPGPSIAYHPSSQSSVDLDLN
The assay can be described thus: Human TGR5 cAMP production assay (hTGR5-CHO cells, DiscoveRx cAMP XS+ kit). It is filed as cell-based. The following applies: luminescent cAMP assay, read-out: Human TGR5 Lum. cAMP Activity (EC50). The procedure, abridged:
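EC50 values come from luminescent enzyme-complementation cAMP detection, read after overnight incubation. Beforehand, hTGR5-expressing CHO-K1 cells with IBMX and anti-cAMP antibody were exposed 1 h at room temperature to serially diluted (half-log) compounds.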

One may read the EC50 as the concentration giving half of the maximal effect. Turning to `CCOc1ccc(-c2cc(N3CCC[C@H]3C(=O)NCCc3ccc(C#N)cc3)nc(C(F)(F)F)n2)cc1` [Compound 151, (S)-N-(4-cyanophenethyl)-1-(6-(4-ethoxyphenyl)-2-(trifluoromethyl)pyrimidin-4-yl)pyrrolidine-2-carboxamide], the EC50 in assay [1] and in assay [2] was 100 to 999 nM in each case.

As for `N#Cc1ccc(CCNC(=O)[C@@H]2CCCN2c2cc(-c3ccc(C#N)cc3)nc(C(F)(F)F)n2)cc1` [Compound 145, (S)-N-(4-cyanophenethyl)-1-(6-(4-cyanophenyl)-2-(trifluoromethyl)pyrimidin-4-yl)pyrrolidine-2-carboxamide], the EC50 is less than 100 nM in assay [1] and 100 to 999 nM in assay [2].

In the case of `N#Cc1ccc(CCNC(=O)[C@@H]2CCCN2c2cc(Nc3ccncc3)nc(C(F)(F)F)n2)cc1` [Compound 14], the EC50 in assay [1] and in assay [2] was 1000 to 30000 nM in each case.

As to `N#Cc1ccc(CCNC(=O)C2CCN2c2cc(-c3ccncc3)nc(C(F)(F)F)n2)cc1` (stereo not shown) [Compound 307, N-(4-cyanophenethyl)-1-(6-(pyridin-4-yl)-2-(trifluoromethyl)pyrimidin-4-yl)azetidine-2-carboxamide], the EC50 is less than 100 nM in assay [1] and 100 to 999 nM in assay [2].

As for `N#Cc1ccc(CCNC(=O)[C@@H]2CCCN2c2cc(-c3ccccc3)nc(C(F)(F)F)n2)cc1` [Compound 144, (S)-N-(4-cyanophenethyl)-1-(6-phenyl-2-(trifluoromethyl)pyrimidin-4-yl)pyrrolidine-2-carboxamide], the EC50 in assay [1] and in assay [2] was 100 to 999 nM throughout.

On to `N#Cc1ccc(CCNC(=O)[C@@H]2CCN2c2cc(-c3ccccn3)nc(C(F)(F)F)n2)cc1` [Compound 306, (S)-N-(4-cyanophenethyl)-1-(6-(pyridin-2-yl)-2-(trifluoromethyl)pyrimidin-4-yl)azetidine-2-carboxamide], for which the EC50 in assay [1] and in assay [2] was 100 to 999 nM each time.

As for `COc1ccc(-c2cc(N3CCC[C@H]3C(=O)NCCc3ccc(C#N)cc3)nc(C(F)(F)F)n2)cc1` [Compound 148, (S)-N-(4-cyanophenethyl)-1-(6-(4-methoxyphenyl)-2-(trifluoromethyl)pyrimidin-4-yl)pyrrolidine-2-carboxamide], the EC50 in assay [1] is less than 100 nM; in assay [2] it was 100 to 999 nM.

As for `N#Cc1ccc(CCNC(=O)[C@@H]2CCCN(c3cc(N4CCN(CCO)CC4)nc(C(F)(F)F)n3)C2)cc1` [Compound 313, (R)-N-(4-cyanophenethyl)-1-(6-(4-(2-hydroxyethyl)piperazin-1-yl)-2-(trifluoromethyl)pyrimidin-4-yl)piperidine-3-carboxamide], the EC50 in assay [1] and in assay [2] was 100 to 999 nM each time.

As to `N#Cc1ccc(CCNC(=O)[C@@H]2CCN2c2cc(-c3cccnc3)nc(C(F)(F)F)n2)cc1` [Compound 305, (S)-N-(4-cyanophenethyl)-1-(6-(pyridin-3-yl)-2-(trifluoromethyl)pyrimidin-4-yl)azetidine-2-carboxamide], the values for the EC50 in assay [1] and in assay [2] were 100 to 999 nM and 1000 to 30000 nM, respectively.

Consider `N#Cc1ccc(CCNC(=O)[C@@H]2CCCN2c2cc(-c3ccc(C(F)(F)F)cc3)nc(C(F)(F)F)n2)cc1` [Compound 147, (S)-N-(4-cyanophenethyl)-1-(2-(trifluoromethyl)-6-(4-(trifluoromethyl)phenyl)pyrimidin-4-yl)pyrrolidine-2-carboxamide], for which the EC50 in assay [1] and in assay [2] was 100 to 999 nM in each case.

Regarding `CC(=O)N1CCC(Nc2cc(N3CCC[C@H]3C(=O)NCCc3ccc(C#N)cc3)nc(C(F)(F)F)n2)CC1` [Compound 53, (S)-1-(6-((1-acetylpiperidin-4-yl)amino)-2-(trifluoromethyl)pyrimidin-4-yl)-N-(4-cyanophenethyl)pyrrolidine-2-carboxamide], the EC50 is less than 100 nM in assay [1] and 1000 to 30000 nM in assay [2].

As to `CN(C)CC1CCN(c2cc(N3CC[C@H]3C(=O)NCCc3ccc(C#N)cc3)nc(C(F)(F)F)n2)CC1` [Compound 221, (S)-N-(4-cyanophenethyl)-1-(6-(4-((dimethylamino)methyl)piperidin-1-yl)-2-(trifluoromethyl)pyrimidin-4-yl)azetidine-2-carboxamide], the EC50 in assay [1] is less than 100 nM; in assay [2], 100 to 999 nM.

Consider `N#Cc1ccc(CCNC(=O)[C@@H]2CCCN2c2cc(-c3ccc(OC(F)(F)F)cc3)nc(C(F)(F)F)n2)cc1` [Compound 150, (S)-N-(4-cyanophenethyl)-1-(6-(4-(trifluoromethoxy)phenyl)-2-(trifluoromethyl)pyrimidin-4-yl)pyrrolidine-2-carboxamide], for which the EC50 in assay [1] and in assay [2] was 100 to 999 nM each time.

Turning to `Cn1ccc2cc(-c3cc(N4CCC[C@H]4C(=O)NCCc4ccc(C#N)cc4)nc(C(F)(F)F)n3)ccc21` [Compound 169, (S)-N-(4-cyanophenethyl)-1-(6-(1-methyl-1H-indol-5-yl)-2-(trifluoromethyl)pyrimidin-4-yl)pyrrolidine-2-carboxamide], the EC50 lay in the range of 100 to 999 nM in assay [1] and 1000 to 30000 nM in assay [2].

In the case of `O=C(NCCc1ccc(C(F)(F)F)cc1)[C@@H]1CCCN1c1cc(-c2ccccn2)nc(C(F)(F)F)n1` [Compound 163, (S)-1-(6-(pyridin-2-yl)-2-(trifluoromethyl)pyrimidin-4-yl)-N-(4-(trifluoromethyl)phenethyl)-pyrrolidine-2-carboxamide], the figures for the EC50 in assay [1] and in assay [2] were 1000 to 30000 nM and 100 to 999 nM, respectively.

On to `CC(C)(C)OC(=O)NCCC1CCN(c2cc(N3CCC[C@H]3C(=O)NCCc3ccc(C#N)cc3)nc(C(F)(F)F)n2)CC1` [Compound 18], for which the EC50 in assay [1] and in assay [2] was 100 to 999 nM throughout.

Consider `CS(=O)(=O)Nc1cccc(-c2cc(N3CCC[C@H]3C(=O)NCCc3ccc(C#N)cc3)nc(C(F)(F)F)n2)c1` [Compound 153, (S)-N-(4-cyanophenethyl)-1-(6-(3-(methylsulfonamido)phenyl)-2-(trifluoromethyl)pyrimidin-4-yl)pyrrolidine-2-carboxamide], for which the EC50 in assay [1] was 100 to 999 nM; in assay [2] it was 1000 to 30000 nM.

In the case of `Cc1ccc(-c2cc(N3CCC[C@H]3C(=O)NCCc3ccc(C#N)cc3)nc(C(F)(F)F)n2)cc1` [Compound 143, (S)-N-(4-cyanophenethyl)-1-(6-(p-tolyl)-2-(trifluoromethyl)pyrimidin-4-yl)pyrrolidine-2-carboxamide], the EC50 in assay [1] and in assay [2] was 100 to 999 nM in each case.

Turning to `COc1ccc(-c2cc(N3CCC[C@H]3C(=O)NCCc3ccc(C#N)cc3)nc(C(F)(F)F)n2)cc1OC` [Compound 149, (S)-N-(4-cyanophenethyl)-1-(6-(3,4-dimethoxyphenyl)-2-(trifluoromethyl)pyrimidin-4-yl)pyrrolidine-2-carboxamide], the EC50 in assay [1] and in assay [2] was 100 to 999 nM throughout.

Consider `N#Cc1ccc(CCNC(=O)[C@@H]2CCCN(c3cc(N4CCN(Cc5cccc6c5OCO6)CC4)nc(C(F)(F)F)n3)C2)cc1` [Compound 319, (R)-1-(6-(4-(benzo[d][1,3]dioxol-4-ylmethyl)piperazin-1-yl)-2-(trifluoromethyl)pyrimidin-4-yl)-N-(4-cyanophenethyl)piperidine-3-carboxamide], for which the EC50 in assay [1] and in assay [2] was 100 to 999 nM each time.
